# From US20250002954A1, “Novel Compound, Use Thereof, and Method for Producing Same, and Compound-Containing Composition, Method for Producing 4-Trehalosamine, and Microorganism” (Microbial Chemistry Research Foundation, priority 2021, published 2025)
# How the values were obtained:
# [1] = tested on: Mycobacterium smegmatis bacterial cells; assay: TLC analysis of lipid components of IMCTA-fluorescein stained cells; format: cell-based; settings: bacterial cells which had ingested IMCTA-fluorescein
# Method: TLC analysis was performed on the lipid components of bacterial cell suspension of Mycobacterium smegmatis bacterial cells stained with IMCTA-fluorescein in test example 11-1 or bacterial cell suspension of Mycobacterium smegmatis bacterial cells treated with DMSO.
# The TLC analysis was performed based on the method of Kai et al. (M. Kai et al., FEBS Lett 2007, 581, p. 3345-3350).
# The bacterial cell suspension of Mycobacterium smegmatis bacterial cells stained with IMCTA-fluorescein in test example 11-1 or the bacterial cell suspension of Mycobacterium smegmatis bacterial cells treated with DMSO was centrifuged at 21,300×g for 1 minute. […]
# In the TLC analysis, a Silica gel 60 TLC plate (manufactured by Merck) was used and the solvent was developed with chloroform/methanol/acetone/acetonitrile (90:10:6:1, v/v). The lipid as a whole was detected with phosphomolybdic acid solution similar to that in test example 1 and fluorescence was detected with a UV trans-illuminator (NTFM-20, manufactured by Analytik Jena US LLC).
# The phosphomolybdic acid staining patterns for the entire component are shown in FIG. 26A and the fluorescence detection patterns are shown in FIG. 26B. […] In FIG. 26B, the arrows indicate components for which fluorescence is seen only in the IMCTA-fluorescein treated sample.
# [2] = tested on: Mycobacterium smegmatis mc^2 (ATCC 700084); assay: Staining of mycobacterium with IMCTA-fluorescein, IMCTA-biotin or IMCTA-azide; format: cell-based
smiles,measurement,setting,value
O=C(N[C@@H]1C(CO)O[C@H](O[C@H]2OC(CO)[C@@H](O)C(O)C2O)C(O)C1O)c1ccc2c(c1)C(=O)OC21c2ccc(O)cc2Oc2cc(O)ccc21 (stereo partly shown) [IMCTA-fluorescein],fluorescent lipids detected by TLC,[1],two fluorescent lipids were detected
same,ingestion into bacterial cells and fluorescence (staining),"[2]; 10 μg/mL IMCTA-fluorescein, 30 μg/mL IMCTA-biotin, 10 μg/mL IMCTA-azide, 37° C., 8 hours",ingested into Mycobacterium smegmatis bacterial cells and emitted fluorescence
same,ingestion in the presence of sucrose (blocking),[2]; sucrose 1% or 3%,no significant inhibition
same,ingestion in the presence of trehalose (blocking),[2]; trehalose 1% or 3%,inhibition was observed in the presence of 1% trehalose
